Consider 21 compounds from US20240025884A1 (Dong-A ST Co., Ltd., priority 2022, published 2024).

The test concerns the target GCN2 (Homo sapiens (Human), UniProt Q9P2K8). Put plainly: GCN2 Biochemical Assay (TR-FRET, GFP-eIF2S1 substrate phosphorylation). As to conditions: read-out: IC50 (GCN2 Inhibitory Activity). The protocol: Experimental Example 1: GCN2 Biochemical Assay
An inhibitory effect of the inventive compound on GCN2 was identified as follows.
384-well (Greiner #784075) (or 1536-well [Greiner #782075]) plates containing 60 nl (or 20 nl for 1536-well) of compound in 100% DMSO (10 concentrations serially diluted 3.16-fold) were prepared. Two copies of plates were used—one for the GCN2 assay and a second for an artifact plate. Working reagents were prepared as follows—reaction buffer: Tris pH 7.5 20 mM, MgCl2 5 mM, DTT 1 mM, Brij-35 0.005%, EGTA 0.5 mM in water; 2× enzyme solution: GCN2 (produced in-house) 1.6 nM in reaction buffer; 2× substrate solution: GFP-eIFS1 (Thermo Fisher Scientific, PV4809) 50 nM, ATP 0.2 mM, tRNA 0.4 mg/ml in reaction buffer; p-GFP-eIF2S1 (artifact) solution: p-GFP-eIFS1 (produced by incubation of 100 nM GFP-eIF2S1 in reaction buffer with 100 uM ATP and 1 nM PERK KD enzyme for 3 hr at room temperature) 2 nM in reaction buffer; 3× stop/antibody solution: p-GFP-EIF2S1 Th-Ab (Thermo Fisher Scientific, PV4816) 6 nM, AZ13933939 3 uM, BSA 3% in reaction buffer. Reagents were loaded onto a liquid dispenser (Certus FLEX, Trajan Scientific and Medical), and 3 ul (1 ul for 1536-well) of 2× enzyme solution, followed by 3 ul (1 ul for 1536-well) of 2× substrate solution was added to the plates. When small numbers of plates were processed, the enzyme solution was added first to all plates, then the valve used for the substrate solution was primed immediately prior to use. Plates were tapped or spun 1 min/1K/RT to ensure proper mixing, followed by incubation at room temperature for 70 mins, covered/stacked in the dark. For the artifact plate, 6 ul of p-GFP-eIF2S1 solution was added prior to adding the stop/antibody solution. 3 ul (1 ul for 1536-well) of 3× stop/antibody solution was added to the plates, followed by a spin-down for 1 min/1K/RT, and incubation for 2-3 hr, sealed or covered with lids in the dark at room temperature. Plates were read on a plate reader (PHERAstar FSX, BMF Labtech) at Ex 340/Em 490/Em 520 nm.
In general terms: Time-resolved FRET reads energy transfer from a long-lived donor to a nearby acceptor.

Sequence of GCN2 (Q9P2K8 whole entry): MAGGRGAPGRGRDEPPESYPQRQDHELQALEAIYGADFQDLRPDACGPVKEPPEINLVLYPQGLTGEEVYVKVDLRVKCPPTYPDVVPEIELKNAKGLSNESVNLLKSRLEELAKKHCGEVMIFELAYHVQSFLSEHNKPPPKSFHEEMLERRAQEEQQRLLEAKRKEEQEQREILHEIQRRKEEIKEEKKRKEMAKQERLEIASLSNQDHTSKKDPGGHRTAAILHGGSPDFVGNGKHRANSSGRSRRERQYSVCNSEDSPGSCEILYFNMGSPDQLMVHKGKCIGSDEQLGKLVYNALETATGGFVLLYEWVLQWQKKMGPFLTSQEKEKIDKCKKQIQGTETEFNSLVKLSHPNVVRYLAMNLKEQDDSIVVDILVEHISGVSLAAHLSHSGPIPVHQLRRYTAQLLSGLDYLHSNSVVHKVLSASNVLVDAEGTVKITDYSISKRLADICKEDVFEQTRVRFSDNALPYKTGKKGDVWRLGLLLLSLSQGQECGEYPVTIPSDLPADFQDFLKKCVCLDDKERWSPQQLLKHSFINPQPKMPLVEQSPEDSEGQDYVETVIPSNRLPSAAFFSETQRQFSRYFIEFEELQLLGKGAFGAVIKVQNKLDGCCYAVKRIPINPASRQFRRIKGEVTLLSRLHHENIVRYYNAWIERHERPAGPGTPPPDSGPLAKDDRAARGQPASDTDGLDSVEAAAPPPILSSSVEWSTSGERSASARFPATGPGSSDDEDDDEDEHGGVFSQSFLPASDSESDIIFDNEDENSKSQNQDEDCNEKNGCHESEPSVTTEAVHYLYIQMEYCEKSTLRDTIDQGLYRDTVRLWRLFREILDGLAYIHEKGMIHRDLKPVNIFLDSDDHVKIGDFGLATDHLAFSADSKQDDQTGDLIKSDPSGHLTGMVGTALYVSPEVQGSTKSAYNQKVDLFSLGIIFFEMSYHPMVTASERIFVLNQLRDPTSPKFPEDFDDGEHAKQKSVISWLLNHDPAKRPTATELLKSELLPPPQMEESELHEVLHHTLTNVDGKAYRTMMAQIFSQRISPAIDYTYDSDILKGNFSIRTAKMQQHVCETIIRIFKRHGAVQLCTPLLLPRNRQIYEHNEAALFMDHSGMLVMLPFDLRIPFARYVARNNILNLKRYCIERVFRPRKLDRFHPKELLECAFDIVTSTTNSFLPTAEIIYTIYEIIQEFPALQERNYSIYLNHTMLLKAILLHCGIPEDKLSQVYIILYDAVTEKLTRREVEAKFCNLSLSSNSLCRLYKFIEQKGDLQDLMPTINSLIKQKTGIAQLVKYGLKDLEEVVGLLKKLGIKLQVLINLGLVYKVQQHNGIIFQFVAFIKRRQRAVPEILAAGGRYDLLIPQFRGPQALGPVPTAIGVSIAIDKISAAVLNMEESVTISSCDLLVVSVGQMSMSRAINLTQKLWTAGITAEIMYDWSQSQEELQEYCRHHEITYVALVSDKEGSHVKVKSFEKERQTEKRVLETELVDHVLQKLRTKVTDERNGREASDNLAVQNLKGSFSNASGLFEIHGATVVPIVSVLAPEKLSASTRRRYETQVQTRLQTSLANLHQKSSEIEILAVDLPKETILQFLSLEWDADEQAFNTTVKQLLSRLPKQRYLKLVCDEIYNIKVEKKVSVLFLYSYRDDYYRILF

As usually defined, the IC50 is the concentration at which inhibition is half-maximal. Take `Cc1cnc(Nc2cc(C)n(C)n2)nc1-c1c[nH]c2c(N3Cc4c(NC(=O)C5CC=CC5)cccc4C3=O)cccc12` [Example 310, N-(2-(3-(2-((1,5-dimethyl-1H-pyrazol-3-yl)amino)-5-methylpyrimidin-4-yl)-1H-indol-7-yl)-1-oxoisoindolin-4-yl)cyclopent-3-ene-1-carboxamide]: the half-maximal inhibitory concentration (IC50) is under 10 nM. `Cc1cnc(Nc2cc(C)n(C)n2)nc1-c1c[nH]c2c(NC(=O)CN3C[C@@H](Oc4ccnc(NC5CC5)n4)C[C@H]3C(=O)O)cccc12` [Example 56, (2S,4S)-4-((2-(cyclopropylamino)pyrimidin-4-yl)oxy)-1-(2-((3-(2-((1,5-dimethyl-1H-pyrazol-3-yl)amino)-5-methylpyrimidin-4-yl)-1H-indol-7-yl)amino)-2-oxoethyl)pyrrolidine-2-carboxylic acid]: the IC50 was in the range of 10 to 100 nM. For `CNC(=O)c1sccc1O[C@H]1CCN(CC(=O)Nc2cccc3c(-c4nc(Nc5cc(C)n(C)n5)ncc4C)c[nH]c23)C1` [Example 110, (S)-3-((1-(2-((3-(2-((1,5-dimethyl-1H-pyrazol-3-yl)amino)-5-methylpyrimidin-4-yl)-1H-indol-7-yl)amino)-2-oxoethyl)pyrrolidin-3-yl)oxy)-N-methylthiophene-2-carboxamide], the IC50 was under 10 nM. In the case of `COc1cnc(Nc2cc(C)n(C)n2)nc1-c1c[nH]c2c(NC(=O)CN3CC[C@H](Oc4ccnc(NC5CC5)n4)C3)cccc12` [Example 13, (S)-2-(3-((2-(cyclopropylamino)pyrimidin-4-yl)oxy)pyrrolidin-1-yl)-N-(3-(2-((1,5-dimethyl-1H-pyrazol-3-yl)amino)-5-methoxypyrimidin-4-yl)-1H-indol-7-yl)acetamide], the 50% inhibitory concentration (IC50) is under 10 nM. As to `Cc1cnc(Nc2cc(C)n(C)n2)nc1-c1c[nH]c2c(N3Cc4c(NC(=O)C5CCCCC5)cccc4C3=O)cccc12` [Example 295, N-(2-(3-(2-((1,5-dimethyl-1H-pyrazol-3-yl)amino)-5-methylpyrimidin-4-yl)-1H-indol-7-yl)-1-oxoisoindolin-4-yl)cyclohexanecarboxamide], the IC50 is 10 to 100 nM.

With `CCN(C)c1nc(O[C@H]2CCN(CC(=O)Nc3cccc4c(-c5nc(Nc6cc(C)n(C)n6)ncc5C)c[nH]c34)C2)ncc1F` [Example 182, (S)-N-(3-(2-((1,5-dimethyl-1H-pyrazol-3-yl)amino)-5-methylpyrimidin-4-yl)-1H-indol-7-yl)-2-(3-((4-(ethyl(methyl)amino)-5-fluoropyrimidin-2-yl)oxy)pyrrolidin-1-yl)acetamide], the IC50 is under 10 nM. Regarding `Cc1cnc(Nc2cc(C)n(C)n2)nc1-c1c[nH]c2c(N3Cc4c(NC(=O)C5(C)CCOCC5)cccc4C3=O)cccc12` [Example 328, N-(2-(3-(2-((1,5-dimethyl-1H-pyrazol-3-yl)amino)-5-methylpyrimidin-4-yl)-1H-indol-7-yl)-1-oxoisoindolin-4-yl)-4-methyltetrahydro-2H-pyran-4-carboxamide], the concentration for half-maximal inhibition (IC50) was under 10 nM. `Cc1cnc(Nc2cc(C)n(C)n2)nc1-c1c[nH]c2c(N3Cc4c(NC(=O)c5ccnnc5)cccc4C3=O)cccc12` [Example 302, N-(2-(3-(2-((1,5-dimethyl-1H-pyrazol-3-yl)amino)-5-methylpyrimidin-4-yl)-1H-indol-7-yl)-1-oxoisoindolin-4-yl)pyridazine-4-carboxamide]: the half-maximal inhibitory concentration (IC50) was under 10 nM.

Regarding `CNc1cc(O[C@H]2CCN(CC(=O)Nc3cccc4c(-c5nc(Nc6cc(C)n(C)n6)ncc5C)c[nH]c34)C2)nc(N)n1` [Example 166, (S)-2-(3-((2-amino-6-(methylamino)pyrimidin-4-yl)oxy)pyrrolidin-1-yl)-N-(3-(2-((1,5-dimethyl-1H-pyrazol-3-yl)amino)-5-methylpyrimidin-4-yl)-1H-indol-7-yl)acetamide], the IC50 was under 10 nM. For `Cc1cnc(Nc2cc(C)n(C)n2)nc1-c1c[nH]c2c(NC(=O)CN3CC[C@H](Oc4ncc(F)c(NC5CC5)n4)C3)cccc12` [Example 179, (S)-2-(3-((4-(cyclopropylamino)-5-fluoropyrimidin-2-yl)oxy)pyrrolidin-1-yl)-N-(3-(2-((1,5-dimethyl-1H-pyrazol-3-yl)amino)-5-methylpyrimidin-4-yl)-1H-indol-7-yl)acetamide], the IC50 is under 10 nM. Regarding `Cc1cnc(Nc2cc(C)n(C)n2)nc1-c1c[nH]c2c(N3Cc4c(-c5ccncc5)ccc(N(C)C)c4C3=O)cccc12` [Example 490, 2-(3-(2-((1,5-dimethyl-1H-pyrazol-3-yl)amino)-5-methylpyrimidin-4-yl)-1H-indol-7-yl)-7-(dimethylamino)-4-(pyridin-4-yl)isoindolin-1-one], the half-inhibitory concentration (IC50) was in the range of 10 to 100 nM. On to `Cc1cnc(Nc2cc(C)n(C)n2)nc1-c1c[nH]c2c(N3Cc4cccc(I)c4C3=O)cccc12` [Example 275, 2-(3-(2-((1,5-dimethyl-1H-pyrazol-3-yl)amino)-5-methylpyrimidin-4-yl)-1H-indol-7-yl)-7-iodoisoindolin-1-one], for which the half-maximal inhibitory concentration (IC50) is 10 to 100 nM. Turning to `Cc1cnc(Nc2cc(C)n(C)n2)nc1-c1c[nH]c2c(NC(=O)CN3CC[C@H](Oc4cc(N5CCC(O)C5)ncn4)C3)cccc12` (stereo partly drawn) [Example 159, N-(3-(2-((1,5-dimethyl-1H-pyrazol-3-yl)amino)-5-methylpyrimidin-4-yl)-1H-indol-7-yl)-2-((3S)-3-((6-(3-hydroxypyrrolidin-1-yl)pyrimidin-4-yl)oxy)pyrrolidin-1-yl)acetamide], the concentration for half-maximal inhibition (IC50) is under 10 nM.

With `Cc1cnc(Nc2cc(C)n(C)n2)nc1-c1c[nH]c2c(N3Cc4c(cccc4-c4cccc5[nH]ncc45)C3=O)cccc12` [Example 457, 2-(3-(2-((1,5-dimethyl-1H-pyrazol-3-yl)amino)-5-methylpyrimidin-4-yl)-1H-indol-7-yl)-4-(1H-indazol-4-yl)isoindolin-1-one], the IC50 is under 10 nM. For the compound `Cc1cnc(Nc2cc(C)n(C)n2)nc1-c1c[nH]c2c(N3C(=O)c4ccccc4C3=O)cccc12` [Example 260, 2-(3-(2-((1,5-dimethyl-1H-pyrazol-3-yl)amino)-5-methylpyrimidin-4-yl)-1H-indol-7-yl)isoindoline-1,3-dione], the IC50 is under 10 nM. For the compound `Cc1cnc(Nc2cc(C)n(C)n2)nc1-c1c[nH]c2c(NC(=O)CN3C[C@@H](Oc4ccnc(NC5CC5)n4)C[C@H]3CN)cccc12` [Example 59, 2-((2S,4S)-2-(aminomethyl)-4-((2-(cyclopropylamino)pyrimidin-4-yl)oxy)pyrrolidin-1-yl)-N-(3-(2-((1,5-dimethyl-1H-pyrazol-3-yl)amino)-5-methylpyrimidin-4-yl)-1H-indol-7-yl)acetamide], the 50% inhibitory concentration (IC50) is under 10 nM.

As to `Cc1cnc(Nc2cc(C)n(C)n2)nc1-c1c[nH]c2c(N3Cc4c(cccc4-c4c(F)cncc4F)C3=O)cccc12` [Example 428, 4-(3,5-difluoropyridin-4-yl)-2-(3-(2-((1,5-dimethyl-1H-pyrazol-3-yl)amino)-5-methylpyrimidin-4-yl)-1H-indol-7-yl)isoindolin-t-one], the IC50 was under 10 nM. For `Cc1cnc(Nc2cc(C)n(C)n2)nc1-c1c[nH]c2c(NC(=O)CN3CC[C@H](Oc4cc(N)[nH]n4)C3)cccc12` [Example 119, (S)-2-(3-((5-amino-1H-pyrazol-3-yl)oxy)pyrrolidin-1-yl)-N-(3-(2-((1,5-dimethyl-1H-pyrazol-3-yl)amino)-5-methylpyrimidin-4-yl)-1H-indol-7-yl)acetamide], the IC50 is 10 to 100 nM.

In the case of `Cc1ccc(-c2cccc3c2CN(c2cccc4c(-c5nc(Nc6cc(C)n(C)n6)ncc5C)c[nH]c24)C3=O)s1` [Example 451, 2-(3-(2-((1,5-dimethyl-1H-pyrazol-3-yl)amino)-5-methylpyrimidin-4-yl)-1H-indol-7-yl)-4-(5-methylthiophen-2-yl)isoindolin-1-one], the IC50 was in the range of 10 to 100 nM. As to `Cc1cnc(Nc2cc(C)n(C)n2)nc1-c1c[nH]c2c(NC(=O)CN3CC[C@H](Oc4ccnc(OCc5ccccc5)n4)C3)cccc12` [Example 195, (S)-2-(3-((2-(benzyloxy)pyrimidin-4-yl)oxy)pyrrolidin-1-yl)-N-(3-(2-((1,5-dimethyl-1H-pyrazol-3-yl)amino)-5-methylpyrimidin-4-yl)-1H-indol-7-yl)acetamide], the IC50 was 10 to 100 nM.

`Cc1cncc(-c2cccc3c2CN(c2cccc4c(-c5nc(Nc6cc(C)n(C)n6)ncc5C)c[nH]c24)C3=O)c1` [Example 477, 2-(3-(2-((1,5-dimethyl-1H-pyrazol-3-yl)amino)-5-methylpyrimidin-4-yl)-1H-indol-7-yl)-4-(5-methylpyridin-3-yl)isoindolin-1-one]: the IC50 is under 10 nM.
